Experimental data as given in patent EP3800188A1, “SUBSTITUTED PYRAZOLOPYRIMIDINES AS IRAK4 INHIBITORS” (Bayer AG, priority 2019, dated 2021).
pIC50: −log10 of the molar value.

Target: T1, human IRAK4 (Homo sapiens, UniProt Q9NWZ3)
T1 construct: GST (N); made in house; host or cells: baculovirus-infected Hi5 (BTI-TN-5B1-4) insect cells
T1 sequence (Q9NWZ3 1-460): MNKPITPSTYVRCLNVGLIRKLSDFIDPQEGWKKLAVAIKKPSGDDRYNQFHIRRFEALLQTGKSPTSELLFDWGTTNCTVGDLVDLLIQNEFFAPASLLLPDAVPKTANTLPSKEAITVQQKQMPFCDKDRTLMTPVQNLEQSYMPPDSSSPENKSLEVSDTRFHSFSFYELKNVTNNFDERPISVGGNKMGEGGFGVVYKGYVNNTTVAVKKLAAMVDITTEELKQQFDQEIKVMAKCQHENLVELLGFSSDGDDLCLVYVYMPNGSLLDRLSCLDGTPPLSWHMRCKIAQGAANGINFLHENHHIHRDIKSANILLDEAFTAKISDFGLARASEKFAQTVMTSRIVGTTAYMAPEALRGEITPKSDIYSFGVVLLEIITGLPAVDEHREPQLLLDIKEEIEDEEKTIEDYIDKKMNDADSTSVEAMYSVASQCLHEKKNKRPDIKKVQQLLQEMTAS
Test: Human IRAK4 kinase activity inhibition assay (IRAK4 TR-FRET assay)
Format: biochemical
Details: 1 mM ATP, GST-human IRAK4, average or median values
Protocol: The IRAK4-inhibitory activity of the inventive substances was measured in the IRAK4 TR-FRET assay (TR-FRET = Time Resolved Fluorescence Resonance Energy Transfer) described hereinafter.
Recombinant fusion protein from N-terminal GST (glutathione S-transferase) and human IRAK4, expressed in baculovirus-infected insect cells (Hi5, BTI-TN-5B1-4, cell line purchased from Invitrogen, catalogue No. B855-02) and purified via affinity chromatography, was used as enzyme. The substrate used for the kinase reaction was the biotinylated peptide biotin-Ahx-[…] (C-terminus in amide form) which can be purchased, for example, from Biosyntan GmbH (Berlin-Buch). For the assay, 11 different concentrations in the range from 20 µM to 0.073 nM were prepared from a 2 mM DMSO solution of the test substance. 50 nl of the respective 100fold concentrated test compound solutions in DMSO were pipetted into a black low-volume 384-well microtitre plate or a black 1536-well microtiter plate (both Greiner Bio-One, Frickenhausen, Germany), 2 µl of a solution of IRAK4 in assay buffer [50 mM HEPES pH 7.5, 5mM MgCl2, 1.0 mM dithiothreitol, 30 µM activated sodium orthovanadate, 0.1% (w/v) of bovine gamma-globulin (BGG) 0.04% (v/v) nonidet-P40 (Sigma)] were added and the mixture was incubated for 15 min to allow prebinding of the substances to the enzyme prior to the kinase reaction. […] The concentration of the IRAK4 was adjusted to the respective activity of the enzyme and set such that the assay was carried out in the linear range. Typical concentrations were in the order of about 0.2 nM. The reaction was stopped by addition of 5 µl of a solution of TR-FRET detection reagents [0.1 µM streptavidin-XL665 (Cisbio Bioassays; France, catalogue No. 610SAXLG)] and 1.5 nM anti-phosphoserine antibody [Merck Millipore, "STK Antibody", catalogue No. 35-002] and 0.6 nM LANCE EU-W1024-labelled anti-mouse-IgG antibody (Perkin-Elmer, product No. AD0077; alternatively, it is possible to use a terbium cryptate-labelled anti-mouse-IgG antibody from Cisbio Bioassays) in aqueous EDTA solution (100 mM EDTA, 0.4 % [w/v] bovine serum albumin [BSA] in 25 mM HEPES pH 7.5). The resulting mixture was incubated at 22°C for 1 h to allow formation of a complex of the biotinylated phosphorylated substrate and the detection reagents. The amount of the phosphorylated substrate was then evaluated by measuring the resonance energy transfer from europium chelate-labelled anti-mouse-IgG antibody to streptavidin-XL665. To this end, the fluorescence emissions at 620 nm and 665 nm were measured after excitation at 350 nm in a TR-FRET measuring instrument, for example a Rubystar (BMG Labtechnologies, Offenburg, Germany) or a Viewlux (Perkin-Elmer). The ratio of the emissions at 665 nm and 622 nm was taken as a measure of the amount of phosphorylated substrate. The data were normalized (enzyme reaction without test substance = 0% inhibition; all other assay components but no enzyme = 100% inhibition).

| pIC50 | SMILES |
| --- | --- |
| 7.07 | O=S1(=O)CC[C@H](Nc2nc(N3CCC(N4CCOCC4)CC3)c3cnn(-c4cccc(C(F)(F)F)c4)c3n2)C1 [Example I-33, N-[(3S)-1,1-dioxidotetrahydrothiophen-3-yl]-4-[4-(morpholin-4-yl)piperidin-1-yl]-1-[3-(trifluoromethyl)phenyl]-1H-pyrazolo[3,4-d]pyrimidin-6-amine] |
| 7.07 | O=S1(=O)CC[C@H](Nc2nc(N3CC(N4CCOCC4)C3)c3cnn(-c4cccc(C(F)(F)F)c4)c3n2)C1 [Example I-34, N-[(3S)-1,1-dioxidotetrahydrothiophen-3-yl]-4-[3-(morpholin-4-yl)azetidin-1-yl]-1-[3-(trifluoromethyl)phenyl]-1H-pyrazolo[3,4-d]pyrimidin-6-amine] |
| 7.78 | CS(=O)(=O)CC1CN(c2nc(N[C@@H]3CNC(=O)C3)nc3c2cnn3-c2cccc(C(F)(F)F)c2)C1 [Example I-35, (4S)-4-[(4-{3-[(methylsulfonyl)methyl]azetidin-1-yl}-1-[3-(trifluoromethyl)phenyl]-1H-pyrazolo[3,4-d]pyrimidin-6-yl)amino]pyrrolidin-2-one] |
| 7.35 | CN1CC[C@H](Nc2nc(N3CC(CS(C)(=O)=O)C3)c3cnn(-c4cccc(C(F)(F)F)c4)c3n2)C1 [Example I-36, N-[(3S)-1-methylpyrrolidin-3-yl]-4-{3-[(methylsulfonyl)methyl]azetidin-1-yl}-1-[3-(trifluoromethyl)phenyl]-1H-pyrazolo[3,4-d]pyrimidin-6-amine] |
| 7.79 | CN(C)C1(C)CN(c2nc(N[C@@H]3CNC(=O)C3)nc3c2cnn3-c2cccc(C(F)(F)F)c2)C1 [Example I-38, (4S)-4-({4-[3-(dimethylamino)-3-methylazetidin-1-yl]-1-[3-(trifluoromethyl)phenyl]-1H-pyrazolo[3,4-d]pyrimidin-6-yl}amino)pyrrolidin-2-one] |
| 7.61 | CN(C)C1(C)CN(c2nc(NC3CCS(=O)(=O)CC3)nc3c2cnn3-c2cccc(C(F)(F)F)c2)C1 [Example I-39, 4-[3-(dimethylamino)-3-methylazetidin-1-yl]-N-(1,1-dioxidotetrahydro-2H-thiopyran-4-yl)-1-[3-(trifluoromethyl)phenyl]-1H-pyrazolo[3,4-d]pyrimidin-6-amine] |
| 6.60 | CC1(O)CN(c2nc(N[C@@H]3CCN(S(C)(=O)=O)C3)nc3c2cnn3-c2cccc(C(F)(F)F)c2)C1 [Example I-41-1, 3-methyl-1-(6-{[(3R)-1-(methylsulfonyl)pyrrolidin-3-yl]amino}-1-[3-(trifluoromethyl)-phenyl]-1H-pyrazolo[3,4-d]pyrimidin-4-yl)azetidin-3-ol] |
| 6.40 | CC1(O)CN(c2nc(N[C@H]3CCN(S(C)(=O)=O)C3)nc3c2cnn3-c2cccc(C(F)(F)F)c2)C1 [Example I-41-2, 3-methyl-1-(6-{[(3S)-1-(methylsulfonyl)pyrrolidin-3-yl]amino}-1-[3-(trifluoromethyl)-phenyl]-1H-pyrazolo[3,4-d]pyrimidin-4-yl)azetidin-3-ol] |
| 7.49 | CN(C)C1CN(c2nc(NC3CCS(=O)(=O)CC3)nc3c2cnn3-c2cccc(C(F)(F)F)c2)C1 [Example I-42, 4-[3-(dimethylamino)azetidin-1-yl]-N-(1,1-dioxidotetrahydro-2H-thiopyran-4-yl)-1-[3-(trifluoromethyl)phenyl]-1H-pyrazolo[3,4-d]pyrimidin-6-amine] |
| 6.55 | CC1(Nc2nc(N3CC(N4CCOCC4)C3)c3cnn(-c4cccc(C(F)(F)F)c4)c3n2)CCS(=O)(=O)C1 (centres unmarked) [Example I-43, N-(3-methyl-1,1-dioxidotetrahydrothiophen-3-yl)-4-[3-(morpholin-4-yl)azetidin-1-yl]-1-[3-(trifluoromethyl)phenyl]-1H-pyrazolo[3,4-d]pyrimidin-6-amine] |
| 7.80 | CN(C)C1CN(c2nc(N[C@@H]3CNC(=O)C3)nc3c2cnn3-c2cccc(C(F)(F)F)c2)C1 [Example I-44, (4S)-4-({4-[3-(dimethylamino)azetidin-1-yl]-1-[3-(trifluoromethyl)phenyl]-1H-pyrazolo-[3,4-d]pyrimidin-6-yl}amino)pyrrolidin-2-one] |
| 7.32 | O=C(O)CC1CN(c2nc(N[C@@H]3CNC(=O)C3)nc3c2cnn3-c2cccc(C(F)(F)F)c2)C1 [Example I-50, [1-(6-{[(3S)-5-oxopyrrolidin-3-yl]amino}-1-[3-(trifluoromethyl)phenyl]-1H-pyrazolo[3,4-d]pyrimidin-4-yl)azetidin-3-yl]acetic acid] |
| 7.00 | O=S1(=O)CCN(C2CN(c3nc(NC4CC4)nc4c3cnn4-c3cccc(C(F)(F)F)c3)C2)CC1 [Example I-53, N-cyclopropyl-4-[3-(1,1-dioxidothiomorpholin-4-yl)azetidin-1-yl]-1-[3-(trifluoromethyl)-phenyl]-1H-pyrazolo[3,4-d]pyrimidin-6-amine] |
| 6.53 | CN(C)C1CN(c2nc(NC3CC(F)(F)C3)nc3c2cnn3-c2cccc(C(F)(F)F)c2)C1 [Example I-54, N-(3,3-difluorocyclobutyl)-4-[3-(dimethylamino)azetidin-1-yl]-1-[3-(trifluoromethyl)-phenyl]-1H-pyrazolo[3,4-d]pyrimidin-6-amine] |
| 7.81 | CS(=O)(=O)[C@H]1C[C@@H](Nc2nc(N3CC(N4CCOCC4)C3)c3cnn(-c4cccc(C(F)(F)F)c4)c3n2)C1 [Example I-55, N-[cis-3-(methylsulfonyl)cyclobutyl]-4-[3-(morpholin-4-yl)azetidin-1-yl]-1-[3-(trifluoromethyl)phenyl]-1H-pyrazolo[3,4-d]pyrimidin-6-amine] |
| 7.51 | CC(C)(O)C1CCN(c2nc(N[C@H]3C[C@@](O)(C(F)(F)F)C3)nc3c2cnn3-c2cccc(C(F)(F)F)c2)CC1 [Example I-63, trans-3-({4-[4-(2-hydroxypropan-2-yl)piperidin-1-yl]-1-[3-(trifluoromethyl)phenyl]-1H-pyrazolo[3,4-d]pyrimidin-6-yl}amino)-1-(trifluoromethyl)cyclobutanol] |
| 6.86 | CC(C)(O)C1CCN(c2nc(N[C@H]3C[C@@](C)(C(=O)O)C3)nc3c2cnn3-c2cccc(C(F)(F)F)c2)CC1 [Example I-66, cis-3-({4-[4-(2-hydroxypropan-2-yl)piperidin-1-yl]-1-[3-(trifluoromethyl)phenyl]-1H-pyrazolo[3,4-d]pyrimidin-6-yl}amino)-1-methylcyclobutanecarboxylic acid] |
| 7.58 | O[C@H]1COC[C@@H]1Nc1nc(N2CC(N3CCOCC3)C2)c2cnn(-c3cccc(C(F)(F)F)c3)c2n1 [Example I-69, (3R,4S)-4-({4-[3-(morpholin-4-yl)azetidin-1-yl]-1-[3-(trifluoromethyl)phenyl]-1H-pyrazolo[3,4-d]pyrimidin-6-yl}amino)tetrahydrofuran-3-ol] |
| 7.82 | CS(=O)(=O)C1CN(c2nc(N[C@H]3C[C@](C)(N)C3)nc3c2cnn3-c2cccc(C(F)(F)F)c2)C1 [Example I-71, trans-1-methyl-N^3-{4-[3-(methylsulfonyl)azetidin-1-yl]-1-[3-(trifluoromethyl)phenyl]-1H-pyrazolo[3,4-d]pyrimidin-6-yl}cyclobutane-1,3-diamine] |

| SMILES | pIC50 |
| --- | --- |
| CC(C)(O)C1CCN(c2nc(N[C@@H]3CN4CCC3CC4)nc3c2cnn3-c2cccc(C(F)(F)F)c2)CC1 [Example I-64-2] | 7.23 |
